Here are results for two molecules from ChEMBL document CHEMBL1821672, “Indolin-2-one p38α inhibitors II: Lead optimisation” (Bioorg Med Chem Lett, 2011).

Each structure is given as a SMILES string. Converted amounts (≈) assume the structure as drawn.

In data set [1] the test system is Caco-2. Put plainly: Apparent permeability from apical to basolateral side of the human Caco2 cells. Format: ADME, cell-based.
In data set [2] the test system is Caco-2. Put plainly: Apparent permeability from basolateral to apical side of human Caco2 cells. Format: ADME, cell-based.
A short description of data set [3]: Mean residence time in rat at 1 mg/kg, iv. It counts as ADME, organism-based. The arrangement: dose 1 mg/kg, route intravenous. To be noted: in vivo.
A short description of data set [4]: Solubility in aqueous media at pH 7.4. It counts as physicochemical.
Data set [5] is described as follows: Metabolic stability in rat hepatic microsomes assessed as compound turnover at 5 uM in absence of NADPH after 30 mins. Particulars: liver microsomes, read-out: Activity. Format: ADME.
A short description of data set [6]: AUC (0 to infinity) in rat at 10 mg/kg, po. Also on record: time infinity, dose 10 mg/kg, route oral. Format: ADME, organism-based. Particulars: plasma.
Data set [7] can be described thus: Metabolic stability in rat hepatic microsomes assessed as compound turnover at 5 uM in presence of NADPH after 30 mins. To be noted: liver microsomes, read-out: Activity. It counts as ADME. A general note: Microsomes from liver hold many membrane-bound enzymes, among them those of drug oxidation.
Data set [8] can be described thus: Cmax in rat at 10 mg/kg, po. Format: ADME, organism-based. Also on record: dose 10 mg/kg, route oral. Particulars: in vivo.
Data set [9] in a line: Cytotoxicity against CHO cells at 200 uM. It counts as cell-based, Cricetulus griseus. Particulars: chinese hamster, read-out: INH.
Data set [10] in a line: Cmax in rat at 1 mg/kg, iv. It counts as ADME, organism-based. Also on record: dose 1 mg/kg, route intravenous. Particulars: in vivo.
Data set [11] is described as follows: Metabolic stability in human hepatic microsomes assessed as compound turnover at 5 uM in absence of NADPH after 30 mins. Particulars: liver microsomes, read-out: Activity. Format: ADME.
Data set [12] is described as follows: AUC (0 to infinity) in rat at 1 mg/kg, iv. Format: ADME, organism-based. The arrangement: time infinity, dose 1 mg/kg, route intravenous. To be noted: plasma.
Data set [13] is filed under the species Rattus norvegicus. As to the kind of experiment: Hepatic blood flow in rat. Format: ADME, organism-based, Liver.
Data set [14] has as its target Mitogen-activated protein kinase 14 (Homo sapiens, UniProt Q16539). As to the kind of experiment: Inhibition of p38alpha in human whole blood assessed as reduction in TNF-alpha production by ELISA.
Data set [15] is described as follows: Terminal half life in rat at 1 mg/kg, iv. Format: ADME, organism-based. Also on record: dose 1 mg/kg, route intravenous. Particulars: in vivo, read-out: beta t1/2 (converted).
Data set [16] can be described thus: Metabolic stability in human hepatic microsomes assessed as compound turnover at 5 uM in presence of NADPH after 30 mins. Format: ADME. To be noted: liver microsomes, read-out: Activity.
A short description of data set [17]: Oral bioavailability in rat at 10 mg/kg. It counts as ADME, organism-based. Particulars: in vivo.
Data set [18] can be described thus: Volume of distribution at steady state in rat at 1 mg/kg, iv. It counts as ADME, organism-based. Particulars: in vivo, read-out: Vdss. The arrangement: dose 1 mg/kg, route intravenous.
Data set [19] in a line: Clearance in rat at 1 mg/kg, iv. Format: ADME, organism-based. The arrangement: dose 1 mg/kg, route intravenous. To be noted: in vivo.

One may read the MRT as a mean duration of stay, worked out from the concentration-time curve. For orientation: solubility means the dissolved amount per volume that the medium holds. By AUC(0-inf) is commonly meant the area under the concentration-time curve extrapolated to infinity. As a reminder, the Cmax is the maximum level reached in the sampled fluid or tissue. By IC50 is commonly meant the concentration that gives 50% inhibition. The term bioavailability denotes dose-corrected exposure relative to a reference, in per cent. A high value points to good availability. As usually defined, the clearance is the rate of elimination divided by the concentration.

Sequence of Mitogen-activated protein kinase 14 (Q16539 whole entry): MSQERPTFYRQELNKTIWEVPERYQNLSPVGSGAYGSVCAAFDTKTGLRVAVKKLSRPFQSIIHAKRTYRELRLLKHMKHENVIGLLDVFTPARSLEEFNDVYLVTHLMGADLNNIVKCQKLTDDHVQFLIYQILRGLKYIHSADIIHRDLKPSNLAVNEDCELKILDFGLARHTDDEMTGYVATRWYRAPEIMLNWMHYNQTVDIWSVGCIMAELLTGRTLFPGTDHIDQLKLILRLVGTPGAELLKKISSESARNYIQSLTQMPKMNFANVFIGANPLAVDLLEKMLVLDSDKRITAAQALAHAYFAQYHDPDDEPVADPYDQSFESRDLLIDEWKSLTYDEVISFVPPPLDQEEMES

On to `Cc1ccc(C(=O)NC2CC2)cc1-c1ccc2c(c1)NC(=O)C21CCCC1`, for which the Papp result in [1] and in [2] was “permeable” in each case. For the same molecule, the MRT in data set [3] came to 2.1 h. For the same molecule, the concentration in solution in data set [4] (solubility) was 3 µg/mL (≈ 8.32 µM). Also, the metabolised at 0.5 h, 5 µM was less than 5% in data set [5] and 44% in [7]. In addition, the AUC(0-inf) in [6] was found to be 2640 ng·h/mL.
As to `Cc1ccc(C(=O)NC2CC2)cc1-c1ccc2c(c1)NC(=O)C21CCN(C)CC1`, the highest concentration (Cmax) in data set [8] came to 134 ng/mL; in data set [10], 133 ng/mL. Further, in [9], the cytotoxicity at 200 µM is 40%. Moreover, the metabolised at 0.5 h, 5 µM in data set [11] is 17%; in data set [16], 15%; in data set [7], 13%. Also, the AUC(0-inf) in data set [12] was determined as 226 ng·h/mL; in data set [6], 786 ng·h/mL. For the same molecule, the Papp entry in data set [1] and in data set [2] was “permeable” in each case. This molecule also showed a QH in data set [13] greater than 85%. Also, in data set [14], the IC50 amounted to 9.6 nM. In data set [3], this molecule gave an MRT of 4.3 h. Also, the half-life in data set [15] was 306 min. In addition, the bioavailability in [17] stood at 35%. Moreover, the Vd in data set [18] is 19.1 L/kg. Moreover, in data set [19], the clearance is 73.3 mL/min/kg.
